Earlier results as cited in US8580300B2, “Pharmaceutical formulation for treating the upper digestive tract” (Dr. Falk Pharma GmbH, priority 2008, dated 2013).

Details: budesonide resorbed in the stomach/digestive tract

CCCC1O[C@@H]2C[C@H]3[C@@H]4CCC5=CC(=O)C=C[C@]5(C)[C@H]4[C@@H](O)C[C@]3(C)[C@]2(C(=O)CO)O1 (stereo partly drawn) [budesonide, 16,17-(butylidenebis(oxy))-11,21-dihydroxy-(11-β,16-α)-pregna-1,4-diene-3,20-dione]
share of the absorbed budesonide metabolised by the first-pass effect: 90%
